What is called EC50 is the concentration needed to bring the measured effect to its halfway point.

The experiment deals with T1, HEK cells stably transfected with tetracycline inducible hNR1 and hNR2A (Homo sapiens, UniProt Q05586+Q12879).
T1 construct: expressed in transfected cells; host or cells: HEK cells, stably transfected, tetracycline/doxycycline inducible
Kind of experiment: Assay 1: Cell-Based Assay, cytosolic calcium response to positive allosteric modulators (with 30 μM glycine and 300 nM L-glutamate, EC30). The settings on record: Table 2; for EC50: cytosolic calcium response, with 30 μM glycine and 300 nM L-glutamate (EC30), — = no plateau was reached; for Max %: responses scaled relative to 100 μM L-glutamate maximal response (100%) and 0 μM L-glutamate (0%). The procedure, abridged: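 Cells induced 24 h with 7.5 μg mL^−1 doxycycline plus 500 μM (+)-ketamine, loaded 60 min at 37 °C with calcium dye in Mg-free HBSS (1.8 mM Ca, probenecid, 10 μM (+)-ketamine, pH 7.15). Peak RFU over 5 min after compound addition, scaled to 100 μM L-glutamate (100%) and 0 μM (0%); four-parameter Hill fit for EC50, max % if no plateau.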

T1 sequence (Q12879 23-1464, other chains not shown): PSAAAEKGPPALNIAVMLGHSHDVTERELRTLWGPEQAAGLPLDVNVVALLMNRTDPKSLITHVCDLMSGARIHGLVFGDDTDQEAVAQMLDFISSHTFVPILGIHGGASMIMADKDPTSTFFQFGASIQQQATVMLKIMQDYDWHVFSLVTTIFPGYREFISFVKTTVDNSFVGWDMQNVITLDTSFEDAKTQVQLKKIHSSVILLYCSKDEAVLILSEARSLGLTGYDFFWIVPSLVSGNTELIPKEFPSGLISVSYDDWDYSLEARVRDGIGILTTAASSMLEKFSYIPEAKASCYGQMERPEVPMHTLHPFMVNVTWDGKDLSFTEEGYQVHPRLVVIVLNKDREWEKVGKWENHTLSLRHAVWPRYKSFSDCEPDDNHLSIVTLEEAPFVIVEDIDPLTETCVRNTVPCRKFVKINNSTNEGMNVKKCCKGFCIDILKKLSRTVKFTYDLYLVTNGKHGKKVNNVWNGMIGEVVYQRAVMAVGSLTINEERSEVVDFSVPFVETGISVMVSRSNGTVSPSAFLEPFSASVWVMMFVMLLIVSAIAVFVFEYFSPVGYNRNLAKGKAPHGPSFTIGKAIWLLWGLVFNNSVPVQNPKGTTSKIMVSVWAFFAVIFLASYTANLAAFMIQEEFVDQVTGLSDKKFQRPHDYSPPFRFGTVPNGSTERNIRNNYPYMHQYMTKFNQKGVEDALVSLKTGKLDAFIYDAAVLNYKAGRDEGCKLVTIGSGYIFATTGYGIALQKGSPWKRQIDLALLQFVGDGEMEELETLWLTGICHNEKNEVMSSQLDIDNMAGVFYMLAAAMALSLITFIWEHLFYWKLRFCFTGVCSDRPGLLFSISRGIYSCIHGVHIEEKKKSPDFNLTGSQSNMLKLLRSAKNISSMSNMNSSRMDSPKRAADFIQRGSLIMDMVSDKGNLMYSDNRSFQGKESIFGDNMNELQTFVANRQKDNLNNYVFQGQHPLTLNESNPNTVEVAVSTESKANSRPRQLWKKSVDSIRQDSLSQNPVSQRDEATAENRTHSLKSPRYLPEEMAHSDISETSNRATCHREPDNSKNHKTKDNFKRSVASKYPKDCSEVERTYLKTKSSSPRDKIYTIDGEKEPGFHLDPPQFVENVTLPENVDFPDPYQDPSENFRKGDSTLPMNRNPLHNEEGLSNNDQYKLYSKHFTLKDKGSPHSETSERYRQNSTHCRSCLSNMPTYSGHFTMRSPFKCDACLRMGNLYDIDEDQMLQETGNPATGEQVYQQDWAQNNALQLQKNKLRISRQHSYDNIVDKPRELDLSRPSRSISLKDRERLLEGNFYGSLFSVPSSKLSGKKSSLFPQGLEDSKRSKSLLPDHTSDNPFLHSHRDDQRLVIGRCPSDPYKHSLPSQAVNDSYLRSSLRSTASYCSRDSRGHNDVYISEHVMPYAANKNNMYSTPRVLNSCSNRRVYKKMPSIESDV

With `CNC(=O)c1c(C)sc2nc(Cc3cccc(CO)c3F)cc(=O)n12` [Example 21.24, 7-[[2-fluoro-3-(hydroxymethyl)phenyl]methyl]-N,2-dimethyl-5-oxo-thiazolo[3,2-a]pyrimidine-3-carboxamide], the EC50 came out at 34.5 µM and the Max % stood at 102%.

For the compound `CCNC(=O)c1c(C)sc2nc(Cc3cccc(C4CC4)c3F)cc(=O)n12` [Example 21.25, 7-(3-cyclopropyl-2-fluorobenzyl)-N-ethyl-2-methyl-5-oxo-5H-thiazolo[3,2-a]pyrimidine-3-carboxamide], the EC50 came to 3.9 µM and the Max % was 105%.

For `CCNC(=O)c1csc2nc(Cc3cccc(C#N)c3F)c(F)c(=O)n12` [Example 21.26, 7-(3-cyano-2-fluorobenzyl)-N-ethyl-6-fluoro-5-oxo-5H-thiazolo[3,2-a]pyrimidine-3-carboxamide], the Max % is reported as 76.5%.

Regarding `CNC(=O)c1c(C)sc2nc(Cc3cccc(C#N)c3F)c(F)c(=O)n12` [Example 21.27], the EC50 came out at 16 µM and the Max % is 122%.

Consider `CCNC(=O)c1c(C)sc2nc(Cc3cccc(C#N)c3F)c(F)c(=O)n12` [Example 21.28, 7-(3-cyano-2-fluorobenzyl)-N-ethyl-6-fluoro-2-methyl-5-oxo-5H-thiazolo[3,2-a]pyrimidine-3-carboxamide], for which the EC50 was 11.4 µM and the Max % was 126%.

Turning to `CNC(=O)c1c(C)sc2nc(Cc3cccc(C(F)(F)F)c3F)c(F)c(=O)n12` [Example 21.29, 6-fluoro-7-(2-fluoro-3-(trifluoromethyl)benzyl)-N,2-dimethyl-5-oxo-5H-thiazolo[3,2-a]pyrimidine-3-carboxamide], the EC50 amounted to 4.7 µM and the Max % worked out at 98.2%.

Regarding `CCNC(=O)c1c(C)sc2nc(Cc3cc(C#N)ccc3C)cc(=O)n12` [Example 21.30, 7-(5-cyano-2-methylbenzyl)-N-ethyl-2-methyl-5-oxo-5H-thiazolo[3,2-a]pyrimidine-3-carboxamide], the Max % was 100%.

In the case of `CCNC(=O)c1c(C)sc2nc(Cc3cc(C#N)ccc3F)cc(=O)n12` [Example 21.31, 7-(5-cyano-2-fluorobenzyl)-N-ethyl-2-methyl-5-oxo-5H-thiazolo[3,2-a]pyrimidine-3-carboxamide], the Max % worked out at 88.8%.

Regarding `CCNC(=O)c1c(C)sc2nc(Cc3cc(F)ccc3Cl)cc(=O)n12` [Example 21.32, 7-(2-chloro-5-fluorobenzyl)-N-ethyl-2-methyl-5-oxo-5H-thiazolo[3,2-a]pyrimidine-3-carboxamide], the Max % turned out to be 84.3%.

Turning to `CCNC(=O)c1csc2nc(Cc3cccc(C#N)c3F)cc(=O)n12` [Example 21.33, 7-(3-cyano-2-fluorobenzyl)-N-ethyl-5-oxo-5H-thiazolo[3,2-a]pyrimidine-3-carboxamide], the Max % is recorded as 82.5%.

Take `CCNC(=O)c1c(C)sc2nc(Cc3cc(F)ccc3C(F)(F)F)cc(=O)n12` [Example 21.34, N-ethyl-7-(5-fluoro-2-(trifluoromethyl)benzyl)-2-methyl-5-oxo-5H-thiazolo[3,2-a]pyrimidine-3-carboxamide]: the Max % worked out at 79.9%.

Turning to `CCNC(=O)c1c(C)sc2nc(Cc3cccc4ccccc34)cc(=O)n12` [Example 21.35, N-ethyl-2-methyl-7-(naphthalen-1-ylmethyl)-5-oxo-5H-thiazolo[3,2-a]pyrimidine-3-carboxamide], the Max % came out at 77.8%.

Take `CCNC(=O)c1c(C)sc2nc(Cc3cc(F)ccc3C)cc(=O)n12` [Example 21.36, N-ethyl-7-(5-fluoro-2-methylbenzyl)-2-methyl-5-oxo-5H-thiazolo[3,2-a]pyrimidine-3-carboxamide]: the Max % came out at 71.8%.

As for `CCNC(=O)c1c(C)sc2nc(Cc3ccc(F)c(C#N)c3)cc(=O)n12` [Example 21.37, 7-(3-cyano-4-fluorobenzyl)-N-ethyl-2-methyl-5-oxo-5H-thiazolo[3,2-a]pyrimidine-3-carboxamide], the Max % turned out to be 68.4%.

As for `CCNC(=O)c1c(C)sc2nc(Cc3cccc4c3cnn4C)cc(=O)n12` [Example 21.38, N-ethyl-2-methyl-7-((1-methyl-1H-indazol-4-yl)methyl)-5-oxo-5H-thiazolo[3,2-a]pyrimidine-3-carboxamide], the Max % stood at 66.5%.

Take `CCNC(=O)c1c(C)sc2nc(Cc3cccc(NS(C)(=O)=O)c3)cc(=O)n12` [Example 21.39, N-ethyl-2-methyl-7-(3-(methylsulfonamido)benzyl)-5-oxo-5H-thiazolo[3,2-a]pyrimidine-3-carboxamide]: the Max % is recorded as 62.6%.

As for `CCNC(=O)c1c(C)sc2nc(Cc3cc(C#N)ccc3C(F)(F)F)cc(=O)n12` [Example 21.40, 7-(5-cyano-2-(trifluoromethyl)benzyl)-N-ethyl-2-methyl-5-oxo-5H-thiazolo[3,2-a]pyrimidine-3-carboxamide], the Max % came to 61.6%.

Regarding `CNC(=O)c1c(C)sc2nc(Cc3ccc(Cl)cc3C)cc(=O)n12` [Example 21.41, 7-(4-chloro-2-methylbenzyl)-N,2-dimethyl-5-oxo-5H-thiazolo[3,2-a]pyrimidine-3-carboxamide], the Max % worked out at 59.7%.

Turning to `CCNC(=O)c1c(C)sc2nc(Cc3cc(F)ccc3F)cc(=O)n12` [Example 21.42, 7-(2,5-difluorobenzyl)-N-ethyl-2-methyl-5-oxo-5H-thiazolo[3,2-a]pyrimidine-3-carboxamide], the Max % is given as 54.5%.

Regarding `CCNC(=O)c1c(C2CC2)sc2nc(Cc3cccc(C#N)c3)cc(=O)n12` [Example 21.43, 7-(3-cyanobenzyl)-2-cyclopropyl-N-ethyl-5-oxo-5H-thiazolo[3,2-a]pyrimidine-3-carboxamide], the Max % came out at 53.5%.

For `CCNC(=O)c1c(C)sc2nc(Cc3ccccc3F)cc(=O)n12` [Example 21.44, N-ethyl-7-(2-fluorobenzyl)-2-methyl-5-oxo-5H-thiazolo[3,2-a]pyrimidine-3-carboxamide], the Max % was 51.9%.

Take `CCNC(=O)c1c(C)sc2nc(Cc3cccc(F)c3F)cc(=O)n12` [Example 21.45, 7-(2,3-difluorobenzyl)-N-ethyl-2-methyl-5-oxo-5H-thiazolo[3,2-a]pyrimidine-3-carboxamide]: the Max % is 49.1%.

Consider `CCNC(=O)c1c(C)sc2nc(Cc3cccc(F)c3)cc(=O)n12` [Example 21.46, N-ethyl-7-(3-fluorobenzyl)-2-methyl-5-oxo-5H-thiazolo[3,2-a]pyrimidine-3-carboxamide], for which the Max % was determined as 43.2%.

In the case of `CNC(=O)c1c(C)sc2nc(Cc3ccc(F)c(Cl)c3)cc(=O)n12` [Example 21.47, 7-[(3-chloro-4-fluoro-phenyl)methyl]-N,2-dimethyl-5-oxo-thiazolo[3,2-a]pyrimidine-3-carboxamide], the Max % is 103%.

`CNC(=O)c1c(C)sc2nc(Cc3cc(Cl)ccc3Cl)cc(=O)n12` [Example 21.48, 7-[(2,5-dichlorophenyl)methyl]-N,2-dimethyl-5-oxo-thiazolo[3,2-a]pyrimidine-3-carboxamide]: the 50% effective concentration (EC50) worked out at 8.2 µM and the Max % is 100%.

For `CNC(=O)c1c(C)sc2nc(Cc3cccc(OC(F)(F)F)c3)cc(=O)n12` [Example 21.49, N,2-dimethyl-5-oxo-7-[[3-(trifluoromethoxy)phenyl]methyl]thiazolo[3,2-a]pyrimidine-3-carboxamide], the Max % stood at 82.3%.

As to `CNC(=O)c1c(C)sc2nc(Cc3cc(C#N)ccc3F)cc(=O)n12` [Example 21.50, 7-[(5-cyano-2-fluoro-phenyl)methyl]-N,2-dimethyl-5-oxo-thiazolo[3,2-a]pyrimidine-3-carboxamide], the Max % is 76.1%.

On to `CNC(=O)c1c(C)sc2nc(Cc3cc(Cl)cc(C#N)c3)cc(=O)n12` [Example 21.51, 7-[(3-chloro-5-cyano-phenyl)methyl]-N,2-dimethyl-5-oxo-thiazolo[3,2-a]pyrimidine-3-carboxamide], for which the Max % came to 75.0%.

On to `CNC(=O)c1c(C)sc2nc(Cc3cccc(C4CC4)c3)cc(=O)n12` [Example 21.52, 7-[(3-cyclopropylphenyl)methyl]-N,2-dimethyl-5-oxo-thiazolo[3,2-a]pyrimidine-3-carboxamide], for which the Max % was 72.9%.

For `CNC(=O)c1c(C)sc2nc(Cc3cc(F)ccc3F)cc(=O)n12` [Example 21.53, 7-[(2,5-difluorophenyl)methyl]-N,2-dimethyl-5-oxo-thiazolo[3,2-a]pyrimidine-3-carboxamide], the Max % was 49%.

In the case of `CNC(=O)c1c(C)sc2nc(Cc3ccc(F)c(F)c3)cc(=O)n12` [Example 21.54, 7-[(3,4-difluorophenyl)methyl]-N,2-dimethyl-5-oxo-thiazolo[3,2-a]pyrimidine-3-carboxamide], the Max % stood at 46%.

On to `CNC(=O)c1c(C)sc2nc(Cc3cccc(F)c3F)cc(=O)n12` [Example 21.55, 7-[(2,3-difluorophenyl)methyl]-N,2-dimethyl-5-oxo-thiazolo[3,2-a]pyrimidine-3-carboxamide], for which the Max % is recorded as 43.8%.

Take `CNC(=O)c1c(C)sc2nc(Cc3ccc(Cl)cc3F)cc(=O)n12` [Example 21.56, 7-[(4-chloro-2-fluoro-phenyl)methyl]-N,2-dimethyl-5-oxo-thiazolo[3,2-a]pyrimidine-3-carboxamide]: the Max % turned out to be 41%.

As to `CNC(=O)c1c(C)sc2nc(Cc3ccc(Cl)cc3Cl)cc(=O)n12` [Example 21.57, 7-[(2,4-dichlorophenyl)methyl]-N,2-dimethyl-5-oxo-thiazolo[3,2-a]pyrimidine-3-carboxamide], the Max % is recorded as 64.1%.

For the origin of these results see patent US9988400B2 (Genentech, Inc., priority 2013, dated 2018).
